Experimental data reported in US20150148311A1, “NON-SYSTEMIC TGR5 AGONISTS” (Ardelyx, Inc., priority 2011, published 2015).

Tests used:
human TGR5 = target: T1, human TGR5 (Homo sapiens, UniProt Q8TDU6); assay: Cell-based TGR5 assay, HEK293 cells stably expressing human TGR5, cAMP by HTRF; conditions: HEK293 cells stably expressing human TGR5, 30 min at 37 C, 0.05 nM to 10 μM, read-out: pEC50 Human TGR5 (converted)
T1 construct: expressed in transfected cells
T1 sequence (Q8TDU6 1-330): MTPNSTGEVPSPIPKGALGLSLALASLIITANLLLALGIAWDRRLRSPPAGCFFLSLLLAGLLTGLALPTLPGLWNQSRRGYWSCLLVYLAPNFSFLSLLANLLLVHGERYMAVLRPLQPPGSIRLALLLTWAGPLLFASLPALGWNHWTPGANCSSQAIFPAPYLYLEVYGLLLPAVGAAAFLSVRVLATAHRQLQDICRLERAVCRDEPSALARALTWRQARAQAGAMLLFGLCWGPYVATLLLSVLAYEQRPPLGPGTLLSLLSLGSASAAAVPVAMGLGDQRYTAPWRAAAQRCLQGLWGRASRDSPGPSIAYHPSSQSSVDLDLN
Summary of the method: (§1)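 cAMP HTRF read-out, converted to concentration via standard curve, after a 30 min, 37 °C compound exposure in HBSS with 10 mM HEPES pH 7.4 and 0.5 mM IBMX, compounds serially diluted 3-fold from 10 mM DMSO stock then 100-fold. Cells: stable human TGR5 HEK293, or NCI-H716 expressing TGR5 endogenously.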

[1] = target: T2, endogenously expressed TGR5 in NCI H716 (Homo sapiens, UniProt Q8TDU6); assay: Cell-based TGR5 assay, NCI-H716 cells endogenously expressing human TGR5, cAMP by HTRF; conditions: 30 min at 37 C, 22 nM to 50 μM, read-out: pEC50 endogenously expressed TGR5 in NCI H716 (converted)
T2 construct: human caecum carcinoma cell line NCI-H716 which endogenously expresses human TGR5; endogenous in cells; host or cells: NCI-H716
T2 sequence (Q8TDU6 1-330): T1 sequence (Q8TDU6 1-330)
Summary of the method: as §1

total GLP-1 = assay: In vivo GLP-1 secretion, plasma total GLP-1 8 h post dose; conditions: Mus musculus, C57BL/6 male mice, food removed, plasma total GLP-1 eight hours after dosing, read-out: GLP-1 fold change over vehicle, Mean
Excerpt: (§2) Eight hours later, each mouse was heavily anesthetized with isoflurane, the peritoneal cavity was opened and the gallbladder, with its entire contents, was carefully excised and weighed. Blood was collected from the left ventricle of the heart and processed to plasma in EDTA-coated tubes containing aprotinin and DPPIV inhibitor for measurement of total GLP-1 (K150FCC; Meso Scales Discovery, Gaithersburg Md.).

C57BL/6 male mice = assay: In vivo gallbladder measurement (weight) 8 h post dose; conditions: 30 mg/kg; for Gallbladder weight/body weight fold change over vehicle, Significance: 8 h, vs. vehicle, one-way ANOVA, Dunnett's test; for Gallbladder weight/body weight fold change over vehicle, Mean: food removed, eight hours after dosing
Excerpt: as §2

[2] = Compound concentration in gall bladder, LC-MS/MS, 8 h post dose; format: in vivo; conditions: 30 mg/kg; for Number of Mice with Gallbladder Concentration < LLOQ: mice below LLOQ / mice in group; for concentration at 8 h: male, C57BL/6, mouse, with contents, mice, gallbladder homogenate, read-out: Mean Example Gallbladder Concentration
Experimental: as §2
Compound concentrations in the gall bladder were determined as follows: each mouse was heavily anesthetized with isoflurane, the peritoneal cavity was opened and the gallbladder, with its entire contents, was carefully excised. After harvest, gall bladders were homogenized in 100 μL water using a micro-homogenizer. Samples of homogenate were diluted 1:5 in water and precipitated with three volumes of neat acetonitrile. After centrifugation, supernatants were analyzed by LC-MS/MS. The level of test compound present in gall bladder samples was interpolated from a standard curve for each individual compound prepared in a matrix of gallbladder homogenate from vehicle treated animals.

[3] = Compound plasma concentration, LC-MS/MS, 8 h post dose; format: in vivo; conditions: 30 mg/kg; for Number of Mice with Plasma Concentration < LLOQ: mice below LLOQ / mice in group; for concentration at 8 h: male, C57BL/6, mouse, mice, plasma, read-out: Mean Example Plasma Concentration
Experimental: as §2
Plasma samples were treated with acetonitrile containing an internal standard, precipitated proteins removed by centrifugation. Supernatants were analyzed by LC-MS/MS and compound concentrations were determined by interpolated from a standard curve prepared in plasma.

human IBAT = target: T3, human IBAT (Homo sapiens, UniProt Q12908); assay: IBAT counter screen, [3H]taurocholic acid uptake in IBAT-transfected HEK293 cells; format: cell-based; conditions: read-out: pEC50 human IBAT (converted)
T3 construct: expressed in transfected cells; host or cells: HEK293
T3 sequence (Q12908 1-348): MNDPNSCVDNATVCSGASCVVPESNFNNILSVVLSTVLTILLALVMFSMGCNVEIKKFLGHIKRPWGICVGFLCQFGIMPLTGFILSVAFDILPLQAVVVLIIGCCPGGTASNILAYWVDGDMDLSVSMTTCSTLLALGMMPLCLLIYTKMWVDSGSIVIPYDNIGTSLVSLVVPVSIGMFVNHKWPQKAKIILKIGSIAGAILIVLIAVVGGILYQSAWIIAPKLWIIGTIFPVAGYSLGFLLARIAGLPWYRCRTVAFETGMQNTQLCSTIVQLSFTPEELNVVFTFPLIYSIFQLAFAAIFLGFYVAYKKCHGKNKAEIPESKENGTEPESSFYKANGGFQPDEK
Experimental: Following a 40-min incubation, the solution was removed, and the cells were washed twice with uptake buffer. Cells were lysed by addition of 20 μL 0.1% Tween 80 followed by 100 μL scintillation fluid and counted using a TopCount (Perkin Elmer).

Compound | EC50 (human TGR5) [nM] | EC50 [1] [nM] | response vs control in vivo at 30 mg/kg (total GLP-1) [%] | Gallbladder weight/body weight fold change over vehicle, Significance (C57BL/6 male mice) | Gallbladder weight/body weight fold change over vehicle, Mean (C57BL/6 male mice) [fold change over vehicle] | Number of Mice with Gallbladder Concentration < LLOQ [2] | concentration at 8 h [2] [nM] | Number of Mice with Plasma Concentration < LLOQ [3] | concentration at 8 h [3] [ng/mL] | EC50 (human IBAT) [nM]
CN(C(=O)C1(OCc2cc(Cl)c(CCCNC(=O)NC[C@H](O)[C@@H](O)[C@H](O)[C@H](O)CO)cc2Cl)CC1)c1ccccc1OC1CC1 [Example 96, N-(2-cyclopropoxyphenyl)-1-(2,5-dichloro-4-(3-(3-((2S,3R,4R,5R)-2,3,4,5,6-pentahydroxyhexyl)ureido)propyl)benzyloxy)-N-methylcyclopropanecarboxamide] | < 100 | < 100 | 190 | n.s. | 0.8 | 0/8 | 1340 | 8/8 | < 2 | 
O=C(N1CCN(C2CC2)c2ccccc21)C1(NCc2cc(Cl)c(O)cc2Cl)CC1 [Example 165, (4-Cyclopropyl-3,4-dihydroquinoxalin-1(2H)-yl)(1-((2,5-dichloro-4-hydroxybenzyl)amino)cyclopropyl)methanone] | < 100 |  | 120 | n.s. | 1.5 | 0/8 | 600 | 2/8 | 2.2 | 
O=C(OC1(C(=O)N2CCN(C3CC3)c3ccccc32)CC1)c1cc(Cl)ccc1Cl [Example 166, 1-(4-cyclopropyl-1,2,3,4-tetrahydroquinoxaline-1-carbonyl)cyclopropyl 2,5-dichlorobenzoate] | < 100 |  | 150 | n.s. | 1.2 | 8/8 | < 12 | 2/8 | 1.4 | 
O=C(N1CCN(C2CC2)c2ccccc21)C1(NCc2cc(Cl)cc(O)c2Cl)CC1 [Example 167, (4-cyclopropyl-3,4-dihydroquinoxalin-1(2H)-yl)(1-((2,5-dichloro-3-hydroxybenzyl)amino)cyclopropyl)methanone] | 126 to 1000 |  | 130 | n.s. | 1.3 | 0/8 | 3300 | 5/8 | 2.3 | 
O=C([C@@H]1CSCN1Cc1cc(Cl)cc(O)c1Cl)N1CCN(C2CC2)c2ccccc21 [Example 169, (R)-(4-cyclopropyl-3,4-dihydroquinoxalin-1(2H)-yl)(3-(2,5-dichloro-3-hydroxybenzyl)thiazolidin-4-yl)methanone] | < 100 |  | 150 |  | 1.9 | 0/8 | 1200 | 4/8 | 2.1 | 
CN(C[C@H](O)[C@@H](O)[C@H](O)[C@H](O)CO)C(=O)NCCCCOc1cc(Cl)c(CN2CSC[C@H]2C(=O)N2CCN(C3CC3)c3ccccc32)cc1Cl [Example 191] | < 100 | 126 to 1000 | 150 | n.s. | 1.0 | 0/8 | 100 | 8/8 | < 0.5 | 
O=C(CCCCc1cc(Cl)c(COC2(C(=O)N3CCN(C4CC4)c4ccccc43)CC2)cc1Cl)NC[C@H](O)[C@@H](O)[C@H](O)[C@H](O)CO [Example 193] | < 100 |  | 90 | n.s. | 1.1 | 0/8 | 900 | 5/8 | 5.2 | > 25100
O=C(CCCCc1cc(Cl)c(CNC2(C(=O)N3CCN(C4CC4)c4ccccc43)CC2)cc1Cl)NC[C@H](O)[C@@H](O)[C@H](O)[C@H](O)CO [Example 218] | < 100 | < 100 | 140 | n.s. | 1.0 | 0/8 | 100 | 2/8 | 0.7 | > 25100
CN(C(=O)C1(OCc2cc(Cl)c(CCCCCNC(=O)NC[C@H](O)[C@@H](O)[C@H](O)[C@H](O)CO)cc2Cl)CC1)c1ccccc1OC1CC1 [Example 258] | < 100 |  | 110 | n.s. | 1.1 | 0/8 | 700 | 7/8 | 9.4 | 
CN(C(=O)C1(OCc2cc(Cl)c(CCCCC(=O)NC[C@H](O)[C@@H](O)[C@H](O)[C@H](O)CO)cc2Cl)CC1)c1ccccc1OC1CC1 [Example 259] | < 100 |  | 140 | n.s. | 0.9 | 0/8 | 100 | 6/8 | 1.1 | 
